Where two headings read alike, the source gives them in different places.
Experiments:
Strand Transfer = Strand Transfer (Human immunodeficiency virus type 1 group M subtype B, UniProt P04585); experiment: Integrase strand transfer inhibition; format: biochemical, HIV
HIV [1] = experiment: Anti-HIV activity in MT4 cells; format: cell-based; settings: Human immunodeficiency virus 1
[2] = Cytotoxicity in MT4 cells; settings: human
Caco-2 permeability = format: in vitro ADME
Pharmacokinetics in rat = format: in vivo; settings: for clearance: in vivo, read-out: Cl Rat (converted)
Pharmacokinetics in dog = format: in vivo; settings: for clearance: in vivo, read-out: Cl Dog (converted)
[3] = In vitro PBMC loading rate; format: in vitro ADME; settings: human
Source text: In one embodiment, the invention is provides compounds capable of accumulating in human PBMC (peripheral blood mononuclear cells). PBMC refer to blood cells having round lymphocytes and monocytes. Physiologically, PBMC are critical components of the mechanism against infection. PBMC may be isolated from heparinized whole blood of normal healthy donors or buffy coats, by standard density gradient centrifugation and harvested from the interface, washed (e.g. phosphate-buffered saline) and stored in freezing medium. PBMC may be cultured in multi-well plates. At various times of culture, supernatant may be either removed for assessment, or cells may be harvested and analyzed (Smith R. etal (2003) Blood 102(7):2532-2540). The compounds of this embodiment may further comprise a phosphonate or phosphonate prodrug. More typically, the phosphonate or phosphonate prodrug can have the structure A^3 as described herein.

[4] = Hepatocyte stability, dog; settings: hepatocytes
[5] = Hepatocyte stability, human; settings: hepatocytes
[6] = Phosphonate prodrugs in vivo summary (pharmacokinetics); settings: species not given
in vitro = settings: human
HIV [7] = experiment: Antiviral activity in MT-2 cells; format: cell-based
[8] = human, Caco-2 studies, read-out: Papp

Row | SMILES | In vitro PBMC Loading Rate [3] [nM/h] | half-life [4] [h] | half-life [5] [h] | (head line blank) [6] [mL/min/kg] | F [6] | Vdβ [6] | other results
1 | COP(=O)(CCN1CCN(C(=O)Oc2c3c(c(O)c4ncccc24)C(=O)N(Cc2ccc(F)cc2)C3)CC1)OC [Compound 2004] |  |  |  |  |  |  | IC50 (Strand Transfer): < 0.6 µM; EC50 (HIV [1]): < 0.02 µM; CC50 [2]: < 5 µM
2 | O=C(NCc1ccc(F)cc1)c1nc(N2CCCCS2(=O)=O)c2cccnc2c1O [Compound L-870810, reference compound] |  |  |  |  |  |  | Papp (Caco-2 permeability; [8]): 40 ×10⁻⁶ cm/s; F Rat (Pharmacokinetics in rat): 42%; Vdb Rat (Pharmacokinetics in rat): 0.72 L/kg; clearance (Pharmacokinetics in rat): 1.5 mL/min/kg; F Dog (Pharmacokinetics in dog): 50%; Vdb Dog (Pharmacokinetics in dog): 0.5 L/kg; clearance (Pharmacokinetics in dog): 1.17 mL/min/kg
3 | CCOC(=O)[C@H](C)NP(=O)(CCNC(=O)c1c2c(c(O)c3ncccc13)C(=O)N(Cc1ccc(F)cc1)C2)Oc1ccccc1 (some centres unmarked) [Compound 2006] | 7830 | 1.73 | 1.63 | 15 | BLQ | 0.7 L/kh | 
4 | CCOC(=O)[C@H](C)NP(=O)(CCCN(C)C(=O)c1c2c(c(O)c3ncccc13)C(=O)N(Cc1ccc(F)cc1)C2)Oc1ccccc1 (some centres unmarked) [Compound 2012] | 4831 | 0.767 | 2.57 | 12 | 0.2% | 0.7 L/kh | Papp (Caco-2 permeability; Caco-2): BQL
5 | CCOC(=O)[C@H](C)OP(=O)(CCN1CCN(C(=O)Oc2c3c(c(O)c4ncccc24)C(=O)N(Cc2ccc(F)cc2)C3)CC1)Oc1ccccc1 (some centres unmarked) [Compound 2005] | 5291 | 1.07 | 1.65 | 60 | 3% | 10.8 L/kg | IC50 (Strand Transfer): < 1.2 µM; EC50 (HIV [1]): < 0.02 µM; CC50 [2]: < 5 µM
6 | CCOC(=O)C(C)NP(=O)(CCN(C)C(=O)c1c2c(c(O)c3ncccc13)C(=O)N(Cc1ccc(F)cc1)C2)Oc1ccccc1 (centres unmarked) [Compound 2008] | 19551 | 0.733 | 1.95 | 15 | 0.5% | 1.8 L/kg | Papp (Caco-2 permeability; human, Caco-2, read-out: Papp): 0.1 ×10⁻⁶ cm/s
7 | CCOC(=O)[C@H](C)OP(=O)(CCNC(=O)c1c2c(c(O)c3ncccc13)C(=O)N(Cc1ccc(F)cc1)C2)Oc1ccccc1 (some centres unmarked) [Compound 2014] |  |  |  | 16.7 | 0.04% | 1.1 L/kg | 
8 | CCOP(=O)(CNC(=O)CCSC1c2c(c(O)c3ncccc3c2OC)C(=O)N1Cc1ccc(F)cc1)OCC (centres unmarked) [Compound 2021] |  |  |  |  |  |  | IC50 (Strand Transfer; read-out: IC50 Strand Transfer): < 1.2 µM; EC50 (HIV [1]): < 0.5 µM; CC50 (in vitro): < 50 µM
9 | CCOP(=O)(COc1c2c(c(O)c3ncccc13)C(=O)N(Cc1ccc(F)cc1)C2)OCC [Compound 2002] |  |  |  |  |  |  | IC50 (Strand Transfer; read-out: IC50 Strand Transfer): < 0.6 µM; EC50 (HIV [1]): < 0.02 µM; CC50 (in vitro): < 5 µM
10 | CCOC(=O)[C@H](C)NP(=O)(CCNC(=O)c1c2c(c(O)c3ncccc13)C(=O)N(Cc1ccc(F)cc1)C2)N[C@@H](C)C(=O)OCC [Compound 2007] |  | 3.23 | 2.65 | 58.3 |  | 4 L/kg | Papp (Caco-2 permeability; Caco-2): BQL
11 | CCOC(=O)[C@H](C)NP(=O)(CCN(C)C(=O)c1c2c(c(O)c3ncccc13)C(=O)N(Cc1ccc(F)cc1)C2)OCC(F)(F)F (some centres unmarked) [Compound 2009] |  | 1.22 |  | 43.3 | 7% | 3 L/kg | Papp (Caco-2 permeability; human, Caco-2, read-out: Papp): 1 to 4 ×10⁻⁶ cm/s
12 | CCOP(=O)(CN1CCN(C(=O)Oc2c3c(c(O)c4ncccc24)C(=O)N(Cc2ccc(F)cc2)C3)CC1)OCC [Compound 2003] |  |  |  |  |  |  | IC50 (Strand Transfer): < 0.6 µM; EC50 (HIV [1]): < 0.02 µM; CC50 [2]: < 5 µM
13 | CCOC(=O)[C@H](C)NP(=O)(CCN(C)C(=O)c1c2c(c(O)c3ncccc13)C(=O)N(Cc1ccc(F)cc1)C2)OCC(F)(F)F (some centres unmarked) [Compound 2018] |  |  |  |  |  |  | EC50 (HIV [7]): 0.0001 µM
14 | CCOC(=O)[C@H](C)NP(=O)(CCN1CCN(C(=O)c2c3c(c(O)c4ncccc24)C(=O)N(Cc2ccc(F)cc2)C3)CC1)Oc1ccccc1 (some centres unmarked) [Compound 2015] |  |  |  | 13 |  | 0.8 L/kh | 
15 | CCOC(=O)[C@H](C)NP(=O)(CCN(C)C(=O)c1c2c(c(O)c3ncccc13)C(=O)N(Cc1ccc(F)cc1)C2)OCC(F)(F)F (some centres unmarked) [Compound 2017] |  |  |  |  |  |  | EC50 (HIV [7]): 0.001 µM
16 | CCOC(=O)[C@H](C)NP(=O)(CO[C@H](C)CNC(=O)c1c2c(c(O)c3ncccc13)C(=O)N(Cc1ccc(F)cc1)C2)Oc1ccccc1 (some centres unmarked) [Compound 2013] | 5774 | 0.883 | 1.33 | 15 |  | 4 L/kg | Papp (Caco-2 permeability; Caco-2): BQL
17 | O=C(NCc1ccccn1)c1c2c(c(O)c3ncccc13)C(=O)N(Cc1ccc(F)cc1)C2 [Compound 2001] |  |  |  |  |  |  | Papp (Caco-2 permeability; [8]): 5 ×10⁻⁶ cm/s; F Rat (Pharmacokinetics in rat): 2%; Vdb Rat (Pharmacokinetics in rat): 8.2 L/kg; clearance (Pharmacokinetics in rat): 183 mL/min/kg; F Dog (Pharmacokinetics in dog): 28%; Vdb Dog (Pharmacokinetics in dog): 0.8 L/kg; clearance (Pharmacokinetics in dog): 1.17 mL/min/kg
18 | CCOC(=O)[C@H](C)NP(=O)(CCCNC(=O)c1c2c(c(O)c3ncccc13)C(=O)N(Cc1ccc(F)cc1)C2)Oc1ccccc1 (some centres unmarked) [Compound 2016] |  |  |  | 6.7 |  | 0.7 L/kh | 
19 | CCOC(=O)[C@H](C)OP(=O)(CCN1CCN(C(=O)c2c3c(c(O)c4ncccc24)C(=O)N(Cc2ccc(F)cc2)C3)CC1)Oc1ccccc1 (some centres unmarked) [Compound 2011] | 4810 | 0.733 | 1.4 | 76.7 | 0.3% | 9.1 L/kg | 
